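At the GI50, growth is halved. TGI denotes the concentration required for complete inhibition of growth.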
Experiments:
Assay in all cases: DTP human tumour cell line panel, 384-well format
A498 renal = tested on: A498 renal
A549 NSCLC = tested on: A549 NSCLC
ACHN renal = tested on: ACHN renal
BT-549 breast = tested on: BT-549 breast
CAKI-1 renal = tested on: CAKI-1 renal
CCRF-CEM leukemia = tested on: CCRF-CEM leukemia
COLO 205 colon = tested on: COLO 205 colon
DU-145 prostate = tested on: DU-145 prostate
EKVX NSCLC = tested on: EKVX NSCLC
HCC-2998 colon = tested on: HCC-2998 colon
HCT-116 colon = tested on: HCT-116 colon
HCT-15 colon = tested on: HCT-15 colon
HL-60(TB) leukemia = tested on: HL-60(TB) leukemia
HOP-62 NSCLC = tested on: HOP-62 NSCLC
HOP-92 NSCLC = tested on: HOP-92 NSCLC
HS 578T breast = tested on: HS 578T breast
K-562 leukemia = tested on: K-562 leukemia
KM12 colon = tested on: KM12 colon
M14 melanoma = tested on: M14 melanoma
MALME-3M melanoma = tested on: MALME-3M melanoma
MCF7 breast = tested on: MCF7 breast
MDA-MB-231 breast = tested on: MDA-MB-231 breast
MDA-MB-435 melanoma = tested on: MDA-MB-435 melanoma
MDA-MB-468 breast = tested on: MDA-MB-468 breast
MOLT-4 leukemia = tested on: MOLT-4 leukemia
NCI-H226 lung = tested on: NCI-H226 lung
NCI-H23 lung = tested on: NCI-H23 lung
NCI-H460 NSCLC = tested on: NCI-H460 NSCLC
NCI-H522 lung = tested on: NCI-H522 lung
NCI/ADR-RES ovarian = tested on: NCI/ADR-RES ovarian
OVCAR-3 ovarian = tested on: OVCAR-3 ovarian
OVCAR-5 ovarian = tested on: OVCAR-5 ovarian
OVCAR-8 ovarian = tested on: OVCAR-8 ovarian
PC-3 prostate = tested on: PC-3 prostate
RPMI-8226 leukemia = tested on: RPMI-8226 leukemia
RXF 393 renal = tested on: RXF 393 renal
SF-268 CNS = tested on: SF-268 CNS
SK-MEL-28 melanoma = tested on: SK-MEL-28 melanoma
SK-OV-3 ovarian = tested on: SK-OV-3 ovarian
SN12C renal = tested on: SN12C renal
SNB-75 CNS = tested on: SNB-75 CNS
SR leukemia = tested on: SR leukemia
SW-620 colon = tested on: SW-620 colon
T-47D breast = tested on: T-47D breast
U251 glioblastoma = tested on: U251 glioblastoma
UACC-62 melanoma = tested on: UACC-62 melanoma
UO-31 renal = tested on: UO-31 renal

CNC(=O)c1cc(Oc2ccc(NC(=O)Nc3ccc(Cl)c(C(F)(F)F)c3)cc2)ccn1
GI50 (A498 renal): 2370 nM
TGI (A498 renal): 4740 nM
GI50 (A549 NSCLC): 2950 nM
TGI (A549 NSCLC): 8890 nM
GI50 (ACHN renal): 2710 nM
TGI (ACHN renal): 6370 nM
GI50 (BT-549 breast): 2290 nM
TGI (BT-549 breast): 4040 nM
GI50 (CAKI-1 renal): 2190 nM
TGI (CAKI-1 renal): 4740 nM
GI50 (CCRF-CEM leukemia): 1590 nM
TGI (CCRF-CEM leukemia): 2950 nM
GI50 (COLO 205 colon): 2190 nM
TGI (COLO 205 colon): 4660 nM
GI50 (DU-145 prostate): 2690 nM
TGI (DU-145 prostate): 6570 nM
GI50 (EKVX NSCLC): 2900 nM
TGI (EKVX NSCLC): 6800 nM
GI50 (HCC-2998 colon): 2130 nM
TGI (HCC-2998 colon): 3860 nM
GI50 (HCT-116 colon): 1650 nM
TGI (HCT-116 colon): 4140 nM
GI50 (HCT-15 colon): 1920 nM
TGI (HCT-15 colon): 4030 nM
GI50 (HL-60(TB) leukemia): 892 nM
TGI (HL-60(TB) leukemia): 2040 nM
GI50 (HOP-62 NSCLC): 1840 nM
TGI (HOP-62 NSCLC): 3420 nM
GI50 (HOP-92 NSCLC): 3000 nM
TGI (HOP-92 NSCLC): 7600 nM
GI50 (HS 578T breast): 1780 nM
TGI (HS 578T breast): 3690 nM
GI50 (K-562 leukemia): 1260 nM
TGI (K-562 leukemia): 2550 nM
GI50 (KM12 colon): 413 nM
TGI (KM12 colon): 2320 nM
GI50 (M14 melanoma): 2480 nM
TGI (M14 melanoma): 5220 nM
GI50 (MALME-3M melanoma): 2010 nM
TGI (MALME-3M melanoma): 4120 nM
GI50 (MCF7 breast): 2140 nM
TGI (MCF7 breast): 5000 nM
GI50 (MDA-MB-231 breast): 1820 nM
TGI (MDA-MB-231 breast): 3470 nM
GI50 (MDA-MB-435 melanoma): 2570 nM
TGI (MDA-MB-435 melanoma): 4980 nM
GI50 (MDA-MB-468 breast): 1500 nM
TGI (MDA-MB-468 breast): 3350 nM
GI50 (MOLT-4 leukemia): 1660 nM
TGI (MOLT-4 leukemia): 3060 nM
GI50 (NCI-H226 lung): 1460 nM
TGI (NCI-H226 lung): 3280 nM
GI50 (NCI-H23 lung): 1560 nM
TGI (NCI-H23 lung): 3650 nM
GI50 (NCI-H460 NSCLC): 2100 nM
TGI (NCI-H460 NSCLC): 4250 nM
GI50 (NCI-H522 lung): 2040 nM
TGI (NCI-H522 lung): 4710 nM
GI50 (NCI/ADR-RES ovarian): 2120 nM
TGI (NCI/ADR-RES ovarian): 4390 nM
GI50 (OVCAR-3 ovarian): 2280 nM
TGI (OVCAR-3 ovarian): 4380 nM
GI50 (OVCAR-5 ovarian): 2690 nM
TGI (OVCAR-5 ovarian): 6590 nM
GI50 (OVCAR-8 ovarian): 2090 nM
TGI (OVCAR-8 ovarian): 4240 nM
GI50 (PC-3 prostate): 2710 nM
TGI (PC-3 prostate): 5910 nM
GI50 (RPMI-8226 leukemia): 1480 nM
TGI (RPMI-8226 leukemia): 2820 nM
GI50 (RXF 393 renal): 2200 nM
TGI (RXF 393 renal): 4430 nM
GI50 (SF-268 CNS): 2220 nM
TGI (SF-268 CNS): 4710 nM
GI50 (SK-MEL-28 melanoma): 2150 nM
TGI (SK-MEL-28 melanoma): 4340 nM
GI50 (SK-OV-3 ovarian): 3930 nM
TGI (SK-OV-3 ovarian): 10400 nM
GI50 (SN12C renal): 2470 nM
TGI (SN12C renal): 5660 nM
GI50 (SNB-75 CNS): 3210 nM
TGI (SNB-75 CNS): 5920 nM
GI50 (SR leukemia): 2100 nM
TGI (SR leukemia): 3550 nM
GI50 (SW-620 colon): 2170 nM
TGI (SW-620 colon): 4540 nM
GI50 (T-47D breast): 1940 nM
TGI (T-47D breast): 5950 nM
GI50 (U251 glioblastoma): 2000 nM
TGI (U251 glioblastoma): 3740 nM
GI50 (UACC-62 melanoma): 2080 nM
TGI (UACC-62 melanoma): 4060 nM
GI50 (UO-31 renal): 748 nM
TGI (UO-31 renal): 1440 nM

— PubChem BioAssay (NCI)
